These results are taken from patent US8349835B2, “Aromatic ring fused triazine derivatives and uses thereof” (Shenyang Pharmaceutical University, priority 2008, dated 2013).

Molecules are shown by their SMILES. pIC50: −log10 of the molar value.

Series [1] has as its system Human breast carcinoma cells (MCF-7). As to the kind of experiment: MTT growth inhibition of MCF-7. The series is classed as cell-based. The note with it: MCF7, 96 h, MCF-7, MTT, 4 days, read-out: IG50 MCF-7. The protocol:
(§1) In Vitro Anti-Tumor Activity Test
(§2) Put cell suspension into centrifugal tubes with a pipette under sterile conditions, then the cell suspension was centrifuged for 3 minutes at 1300 rpm. Discarded the supernatant lightly and added fresh culture medium. Mixed the cells by pipetting, then transferred the cells into culture flasks, and put them into the CO2 incubator. Changed the culture medium once after 24 hours.
(§3) Human prostate cancer cells (DU145, PC-3) were cultured in a medium containing RPMI1640 basic medium supplemented with 10% heat-inactivated FBS, 100 IU/mL penicillin, 100 μg/mL streptomycin and 1 mmol/L L-glutamine. Human breast carcinoma cells (T47D, MDA-MB231) were cultured in a medium containing RPM11640 basic medium supplemented with 10% heat-inactivated FBS, 5 μg/mL insulin, 100 IU/mL penicillin, 100 μg/mL streptomycin and 1 mmol/L L-glutamine. Human breast carcinoma cells (MCF-7) were cultured in a medium containing DMEM basic medium supplemented with 10% heat-inactivated FBS, 5 μg/mL insulin, 100 IU/mL penicillin, 100 μg/mL streptomycin and […]. Murine Lewis lung cancer cells (LL/2), murine melanoma cells (B16FD) and Microvascular Endothelial Cells (MVEC) were cultured in a medium containing DMEM basic medium supplemented with 10% heat-inactivated FBS, 4.5 g/L glucose, 1.5 g/L NaHCO3, 100 IU/mL penicillin, 100 μg/mL streptomycin and 4 mmol/L L-glutamine. All these cell lines were incubated at 37° C. biochemical incubator with 5% CO2 saturated humidity.
(§4) After resuscitation, the cells were passed for 2-3 generations till they became stable, then they were used for the experiments. Each passage was based on the standard that all cells were spread over the bottoms of culture flasks.
(§5) Cells were digested off from the bottoms of culture flasks with trypsin (0.25%). The cell dissociation buffer was transferred into centrifuge tubes, added medium to stop the digestion, and centrifuged for 3 minutes at 1300 rpm. […]
(§6) Added 50 μL MTT liquids (2 mg/mL) into each well, put the culture plates into the biochemical incubator for 4 h, discarded MTT liquids (TCC), added 200 μL DMSO, then oscillated for 10 minutes on the magnetic oscillator to make sure that the survived cells and the reaction product of MTT were fully dissolved. Detected and recorded the absorbance (OD) values of each well at the wavelength of 570 nm using the microplate reader. […] The cell growth inhibition rates under each drug concentration were calculated by the following formula. […] Inhibition rate of growth(%)=(1−The absorbance(OD)of cells with tested drugs/The absorbance(OD)of the blank control group)×100%
(§7) The absorbance (OD) of cells with tested drugs: OD value is measured with the test drugs.
(§8) The absorbance (OD) of the blank control group: OD value is measured without the test drugs. […]

The nature of another series: in vivo. The note with it: both sexes, mouse, intraperitoneal, Kunming mice, peritoneal injection, single administration, observed for one week. The protocol:
9) Acute Toxicity Testing
Animals: healthy mice of Kunming species, female and male each account for 50%, and the weights range from 18 to 22 g. All the mice were obtained from the laboratory animal center of Shenyang Pharmaceutical University. Certificate number: Liao Shi He Zi No. 033
Medicine preparation: drugs were added in 0.2% Polysorbate 80 (Tween-80) to make suspension. The dosage of tested compounds was indicated with mg/kg.
Test period and Observed index: observed for one week after the administration. The toxic reaction information of the mice was recorded everyday during the observation period. The death of mice was regarded as the principal index. Half lethal doses (LD50, mg/kg) of the compounds one week after the drug administration were calculated according to the method of weighted regression.

Series [2] relates to Microvascular Endothelial Cells (MVEC). As to the kind of experiment: MTT growth inhibition of MVEC. The series is classed as cell-based. The following applies: Endothelial cell, 96 h, 4 days culture with drug, read-out: IG50 on inhibiting growth of MVEC. The gist of the method:
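MVEC were seeded at 2×10^4 cells/mL in DMEM with 10% FBS and allowed to attach for 24 h, then treated with compound at final concentrations of 5–80 μmol/L (triplicates) for 4 days at 37 °C. MTT (4 h) absorbance at 570 nm gave % growth inhibition relative to untreated cells.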

For series [3], the system named is Human prostate cancer cells (DU145). Briefly: MTT growth inhibition of DU145. The series is classed as cell-based. The note with it: DU-145, 96 h, 4 days, read-out: IG50 DU145. The protocol: as §1, §2, §3, §4
(§9) Cells were digested off from the bottoms of culture flasks with trypsin (0.25%). The cell dissociation buffer was transferred into centrifuge tubes, added medium to stop the digestion, and centrifuged for 3 minutes at 1300 rpm. Discarded the supernatant lightly and added fresh culture medium (5 mL). Mixed the cells by pipetting, then added 10 μL of the cell suspension into the cell counting plate, and adjusted the cell concentration to 2×10^4 cells/mL. Added 100 μL of the cell suspension to all wells on the 96 well plates, except A1 well as the blank control. Put the plates into the biochemical incubator for 24 hours and to make sure the cells grew along the walls. […]
as §6, §7, §8

Series [4] deals with Human prostate cancer cells (PC-3). As to the kind of experiment: MTT growth inhibition of PC-3. In kind it is cell-based. The following applies: 96 h, PC-3, MTT, 4 days, read-out: IG50 PC-3. The procedure: as §1, §2, §3, §4, §9, §6, §7, §8
Series [5] deals with murine melanoma cells (B16F0). As to the kind of experiment: MTT growth inhibition of B16F0. The note with it: Mus musculus, 96 h, 4 days, read-out: IG50 B16F0. The series is classed as cell-based. The procedure:
as §1, §2, §3, §4, §9, §6, §7, §8

The subject of series [6] is Human breast carcinoma cells (T47D). Briefly: MTT growth inhibition of T47D. The note with it: 96 h, 4 days, read-out: IG50 T47D. In kind it is cell-based. The protocol:
as §1, §2, §3, §4, §9, §6, §7, §8

For series [7], the system named is Human breast carcinoma cells (MDA-MB231). As to the kind of experiment: MTT growth inhibition of MDA-MB231. The following applies: MDA-MB-231, 96 h, 4 days, read-out: IG50 MDA-MB231. In kind it is cell-based. The procedure: as §1, §2, §3, §4, §5, §6, §7, §8
Series [8] deals with Murine Lewis lung cancer cells (LL/2). Briefly: MTT growth inhibition of LL/2. In kind it is cell-based. The following applies: Mus musculus, Lewis lung carcinoma, 96 h; LL/2, MTT, 4 days; read-out: IG50 LL/2. The procedure: as §1, §2, §3, §4, §9, §6, §7, §8
The subject of series [9] is Human Umbilical Vein Endothelial Cells (HUVEC). As to the kind of experiment: MTT growth inhibition of HUVEC. The note with it: 96 h, 4 days, read-out: IG50 HUVEC. In kind it is cell-based. The procedure: as §1, §2, §4
Cells were digested off from the bottoms of culture flasks with trypsin (0.25%). The cell dissociation buffer was transferred into centrifuge tubes, added medium to stop the digestion, and centrifuged for 3 minutes at 1300 rpm. Discarded the supernatant lightly and added fresh culture medium (5 mL). Mixed the cells by pipetting, then added 10 μL of the cell suspension into the cell counting plate, and adjusted the cell concentration to 2×10^4 cells/mL. Added 100 μL of the cell suspension to all wells on the 96 well plates, except A1 well as the blank control. Put the plates into the biochemical incubator for 24 hours and to make sure the cells grew along the walls.
The drugs were dissolved in 80 mmol/L DMSO first, and then diluted the drugs with ethanol to 8 mmol/L. The solution was further diluted with the culture medium to different concentrations as 160 μmol/L, 120 μmol/L, 80 μmol/L, 40 μmol/L, 20 μmol/L and 10 μmol/L. Added 100 μL of the drug solution to each well on the 96 well plates. Therefore, the final concentrations of the drugs that were added to the cells were 80 μmol/L, 40 μmol/L, 20 μmol/L, 10 μmol/L and 5 μmol/L, and each concentration were repeated in three parallel wells. Put the culture plates into the biochemical incubator to culture continuously for 4 days.
Added 50 μL MTT liquids (2 mg/mL) into each well, put the culture plates into the biochemical incubator for 4 h, discarded MTT liquids (TCC), added 200 μL DMSO, then oscillated for 10 minutes on the magnetic oscillator to make sure that the survived cells and the reaction product of MTT were fully dissolved. Detected and recorded the absorbance (OD) values of each well at the wavelength of 570 nm using the microplate reader. The OD values of cells without tested drugs were used as control. The cell growth inhibition rates under each drug concentration were calculated by the following formula. […] Inhibition rate of growth(%)=(1−The absorbance(OD)of cells with tested drugs/The absorbance(OD)of the blank control group)×100%
as §7
The absorbance (OD) of the blank control group: OD value is measured without the test drugs.
8) The Growth Inhibition Effect of Compounds on Human Breast Carcinoma Cells (T47D, MDA-MB231, MCF-7), Human Prostate Cancer (DUI45, PC-3), Murine Lewis Lung Cancer Cells (LL/2), Murine Melanoma Cells(B16F0) and Human Umbilical Vein Endothelial Cells (HUVEC) (Table 2).

Another series addresses VEGFR-2 (Homo sapiens, UniProt P35968). Briefly: VEGFR-2 inhibition rate test (kinase assay kit, colorimetric ELISA). The note with it: concentration not given.
For another series, the system named is Rat aortic ring. As to the kind of experiment: Rat Aortic Ring Assay. The series is classed as cell-based. The note with it: observed on the sixth day. The gist of the method:
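1 mm abdominal aortic rings from 6-week-old SD animals embedded in Matrigel, cultured in DMEM/10% FBS with compound at various concentrations (≥3 wells), medium and compound renewed day 3. Microvessel area imaged on day 6 (×100, 3 random rings); inhibition rate scored: ⋆<30-60%, ⋆⋆60-90%, ⋆⋆⋆>90%.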

The subject of series [10] is chorioallantoic membrane vessels. As to the kind of experiment: Activity test by chick chorioallantoic membrane method. The series is classed as in vivo. The following applies: 5 uL medicine on cellulose membrane, chick embryo, 2 days. A digest of the protocol:
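A sterile 0.5×0.5 cm cellulose membrane carrying 5 uL of test agent is placed on a low-vessel region of the exposed chick chorioallantoic membrane. The embryos are then incubated 2 days. The avascular area is measured and photographed.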

VEGFR-2, sequence (P35968 20-1356): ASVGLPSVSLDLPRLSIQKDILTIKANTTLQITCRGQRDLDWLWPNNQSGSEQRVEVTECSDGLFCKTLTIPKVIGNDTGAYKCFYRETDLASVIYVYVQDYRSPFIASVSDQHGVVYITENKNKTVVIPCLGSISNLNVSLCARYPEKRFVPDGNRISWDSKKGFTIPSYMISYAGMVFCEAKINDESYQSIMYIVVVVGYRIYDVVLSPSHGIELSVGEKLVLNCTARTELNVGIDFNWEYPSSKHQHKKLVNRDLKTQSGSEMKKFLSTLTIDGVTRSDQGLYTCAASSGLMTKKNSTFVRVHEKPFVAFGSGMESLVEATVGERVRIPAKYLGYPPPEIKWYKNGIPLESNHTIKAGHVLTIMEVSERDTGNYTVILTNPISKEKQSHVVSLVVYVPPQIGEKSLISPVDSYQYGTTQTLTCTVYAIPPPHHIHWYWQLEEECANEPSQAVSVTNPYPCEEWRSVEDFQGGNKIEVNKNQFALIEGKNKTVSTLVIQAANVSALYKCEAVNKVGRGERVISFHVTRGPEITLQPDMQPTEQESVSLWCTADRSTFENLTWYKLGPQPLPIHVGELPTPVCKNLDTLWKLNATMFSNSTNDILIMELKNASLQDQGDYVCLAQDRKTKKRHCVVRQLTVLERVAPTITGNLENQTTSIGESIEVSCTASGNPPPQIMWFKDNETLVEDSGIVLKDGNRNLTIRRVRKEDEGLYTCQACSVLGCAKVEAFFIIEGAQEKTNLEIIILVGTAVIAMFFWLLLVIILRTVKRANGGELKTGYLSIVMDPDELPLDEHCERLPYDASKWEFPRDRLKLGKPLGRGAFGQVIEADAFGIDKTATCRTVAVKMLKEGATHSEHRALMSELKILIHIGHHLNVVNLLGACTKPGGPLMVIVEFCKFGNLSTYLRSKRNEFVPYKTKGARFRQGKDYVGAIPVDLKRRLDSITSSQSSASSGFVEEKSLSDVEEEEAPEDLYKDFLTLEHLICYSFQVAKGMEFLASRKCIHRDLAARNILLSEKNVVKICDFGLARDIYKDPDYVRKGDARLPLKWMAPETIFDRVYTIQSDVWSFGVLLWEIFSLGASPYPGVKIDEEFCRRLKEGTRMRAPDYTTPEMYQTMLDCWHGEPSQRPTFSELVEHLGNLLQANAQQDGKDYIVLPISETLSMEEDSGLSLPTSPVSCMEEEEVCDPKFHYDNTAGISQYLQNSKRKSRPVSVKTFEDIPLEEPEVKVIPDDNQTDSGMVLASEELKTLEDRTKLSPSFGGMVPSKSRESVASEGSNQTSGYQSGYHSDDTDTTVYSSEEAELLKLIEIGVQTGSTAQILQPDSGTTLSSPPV
Protocol for VEGFR-2: VEGFR-2 Inhibition Rate Test
Experiments were carried out according to the Kit instruction as the follows
1) Added 10 μL 10 mM ATP to 1.25 ml 6 μM substrate peptide, and diluted the mixture to 2.5 mL with pure water to prepare the reaction solution of 2×ATP/Substrate (ATP=40 μM, Substrate=3 μm).
2) Quickly moved VGFR-2 Kinase from −80° C. to the ice to be thawed.
3) Centrifuged at 4° C. shortly, then the liquid was centrifuged to the bottoms of the containers and moved back on the ice.
5) Added 0.6 mL DTT/Kinase buffer solution to a tube containing the kinase to prepare 4× Reaction solution (Kinase=8 ng/μL).
6) Diluted 12.5 μL of selected compound by the same volume, then mixed with 12.5 μL 4× Reaction solution of Kinase, and incubated for 5 minutes at room temperature.
7) Added 25 μL 2× Reaction solution of ATP/Substrate into the above solution.
8) Incubated for 30 minutes at room temperature.
10) Added 25 μL reaction solution and 75 μL pure water to Streptavidin coated plates and incubated for 60 minutes at room temperature.
11) Diluted Phospho-Tyrosin mAb with PBS/T containing 1% BSA to one thousandth, and added 100 uL of the diluted Ab to each well.
12) Incubated for 60 minutes at room temperature.
13) Washed the plate three times with 200 μL PBS/T for each well.
Detection of Colorimetric ELISA
14) Secondary antibody was diluted with PBS/T containing 1% BSA marked by HRP (IgG of anti-rat diluted to 1/500, and IgG of anti-rabbit diluted to 1/1000).
15) Added 100 μL diluted secondary antibody to each well.
16) Incubated for 30 minutes at room temperature.
17) Washed the plate five times with 200 μL PBS/T for each well.
18) Added 100 μL TMB substrate to each well.
20) Added 100 μL Sulfuric acid solution (2N) to each well to stop the reaction, and mixed evenly.
21) Detected the absorbance at 450 nm with Microplate Reader and calculated enzyme inhibition rate.

With `CCCCOc1cc2nnnc(Nc3ccc(C)cc3)c2cc1OC` [Example 27, 6-methoxy-7-n-butoxy-4-(4-methylanilino)-benzo[d][1,2,3]triazine], the pIC50 in series [1] is 5.21; in series [2], 5.04; in series [3], 4.82; in series [4], 4.80; in [5] it was 4.65; in series [6], 4.73. Further, the pIC50 in series [7] was 4.71; in series [8] it was 4.80; in [9], 5.30. For the same compound, the 50% lethal dose (LD50) at 1 week in “in vivo” is 733 mg/kg.

With `COc1cc2c(Nc3ccc(F)c(Cl)c3)nnnc2cc1OCCCCl` [Example 72, 6-methoxy-7-chloropropoxy-4-(3-chloro-4-fluoroanilino)-benzo[d][1,2,3]triazine], the pIC50 in [2] was 5.10; in series [3], 5.30; in series [4], 5.16; in series [5], 5.28; in series [6], 5.30; in series [8], 5.42. The pIC50 in series [9] is 5.43. Further, the “Kinase inhibition rate (VEGFR-2)” value at VEGFR-2 is listed as −14.70.

Regarding `FC(F)(F)c1cccc(Nc2nnnc3ccc(Cl)nc23)c1` [Example 84, 6-chloro-4-(3-trifluoromethylanilino)pyrido[3,2-d][1,2,3]triazine], the pIC50 was 5.40 in series [1]; 5.28 in series [2]; 5.23 in [3]; 5.16 in [4]; 5.37 in [5]; 5.23 in series [6]. Further, the values for the pIC50 in series [7], in series [8] and in series [9] were 5.29, 5.32 and 5.52, respectively. Also, the “Rat Aortic Ring Assay (10 ug/ml), result in words” value in the series on Rat aortic ring was “Almost complete inhibition (10 μg/mL), vascular ring was dead”. The compound further gave an LD50 at 1 week in “in vivo” of 424 mg/kg.

Take `FC(F)(F)Oc1cccc(Nc2nnnc3ccc(Cl)nc23)c1` [Example 86, 6-chloro-4-(3-trifluoromethoxyanilino)pyrido[3,2-d][1,2,3]triazine]: the pIC50 in series [1] is 5.34; in series [2] it was 5.37; in series [3], 5.38; in [4], 5.22; in series [5], 5.33; in series [6], 5.19. Besides, the figures for the pIC50 in series [7], in series [8] and in series [9] were 5.33, 5.38 and 5.66, respectively. In addition, the “Rat Aortic Ring Assay (10 ug/ml), result in words” value in the series with Rat aortic ring was “Almost complete inhibition (10 μg/mL), vascular ring was dead”. The LD50 at 1 week in “in vivo” came to 292 mg/kg. Further, at VEGFR-2, the “Kinase inhibition rate (VEGFR-2)” value is 29.93.

Take `Clc1ccc(Nc2nnc(Cc3ccncc3)c3ccccc23)cc1` [PTK787, Vatalanib succinate, reference compound]: the pIC50 is 4.91 in [1]; 4.42 in series [2]; 4.38 in series [3]; 4.20 in series [4]; 4.67 in series [5]; 4.44 in series [6]. Also, the pIC50 in [7] was 4.62; in series [8] it was 4.46; in [9] it was < 4.40. Besides, the “The inhibitory effect on the growth of chorioallantoic membrane vessels” value in series [10] is “There is no vascular growth”.
